How the values were obtained:
Type in all cases: binding
panel of 442 kinases [1] = molecular target: T1, panel of 442 kinases (Homo sapiens, UniProt P54756); settings: Compound Concentration 10 µM
T1 construct: purchased KINOMEscan
Description: (§1) We assessed the selectivity of members of this scaffold using the KINOMEscan methodology across a near comprehensive panel of 442 kinases [[18,27]].

panel of 442 kinases [2] = molecular target: T2, panel of 442 kinases (Homo sapiens, UniProt P57059); settings: kinase SIK; compound concentration 10 µM
T2 construct: purchased KINOMEscan
T2 sequence (P57059 whole entry): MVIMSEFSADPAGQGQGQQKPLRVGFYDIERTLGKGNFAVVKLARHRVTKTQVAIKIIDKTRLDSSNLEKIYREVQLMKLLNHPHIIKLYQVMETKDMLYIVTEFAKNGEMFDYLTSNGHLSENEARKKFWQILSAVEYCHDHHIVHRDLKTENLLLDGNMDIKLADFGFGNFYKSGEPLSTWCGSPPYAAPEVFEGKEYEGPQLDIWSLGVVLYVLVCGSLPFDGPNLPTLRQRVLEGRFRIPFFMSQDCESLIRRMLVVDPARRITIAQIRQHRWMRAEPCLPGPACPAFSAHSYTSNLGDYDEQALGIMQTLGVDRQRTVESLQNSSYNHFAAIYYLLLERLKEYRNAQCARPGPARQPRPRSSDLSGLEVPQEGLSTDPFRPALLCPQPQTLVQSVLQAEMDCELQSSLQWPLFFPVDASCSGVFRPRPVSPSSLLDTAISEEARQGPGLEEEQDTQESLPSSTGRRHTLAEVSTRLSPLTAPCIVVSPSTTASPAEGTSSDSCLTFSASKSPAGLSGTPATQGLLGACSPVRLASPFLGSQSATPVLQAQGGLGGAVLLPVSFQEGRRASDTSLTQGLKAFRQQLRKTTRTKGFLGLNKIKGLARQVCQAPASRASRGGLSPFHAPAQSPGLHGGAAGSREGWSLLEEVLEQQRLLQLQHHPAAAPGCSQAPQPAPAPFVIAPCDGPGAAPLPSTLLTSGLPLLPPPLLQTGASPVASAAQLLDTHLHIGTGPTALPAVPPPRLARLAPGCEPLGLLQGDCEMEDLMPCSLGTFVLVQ
Description: as §1

panel of 442 kinases [3] = molecular target: T3, panel of 442 kinases (Homo sapiens, UniProt Q52WX2); settings: kinase SBK1; compound concentration 10 µM
T3 construct: purchased KINOMEscan
T3 sequence (Q52WX2 whole entry): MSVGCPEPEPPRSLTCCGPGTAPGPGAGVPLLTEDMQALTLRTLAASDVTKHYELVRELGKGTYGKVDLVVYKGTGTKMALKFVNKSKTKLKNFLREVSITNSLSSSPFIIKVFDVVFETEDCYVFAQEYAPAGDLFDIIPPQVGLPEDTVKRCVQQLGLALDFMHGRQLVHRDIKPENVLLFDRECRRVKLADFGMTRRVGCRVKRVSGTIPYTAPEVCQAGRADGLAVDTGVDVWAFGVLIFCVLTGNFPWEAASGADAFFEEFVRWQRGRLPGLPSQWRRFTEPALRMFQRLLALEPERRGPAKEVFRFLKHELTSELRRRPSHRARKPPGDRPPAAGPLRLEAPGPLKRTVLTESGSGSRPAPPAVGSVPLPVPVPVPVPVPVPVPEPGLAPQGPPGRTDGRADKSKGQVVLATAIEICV
Description: as §1

panel of 442 kinases [4] = molecular target: T4, panel of 442 kinases (Homo sapiens, UniProt Q8IVW4); settings: Compound Concentration 10 µM
T4 construct: purchased KINOMEscan
T4 sequence (Q8IVW4 whole entry): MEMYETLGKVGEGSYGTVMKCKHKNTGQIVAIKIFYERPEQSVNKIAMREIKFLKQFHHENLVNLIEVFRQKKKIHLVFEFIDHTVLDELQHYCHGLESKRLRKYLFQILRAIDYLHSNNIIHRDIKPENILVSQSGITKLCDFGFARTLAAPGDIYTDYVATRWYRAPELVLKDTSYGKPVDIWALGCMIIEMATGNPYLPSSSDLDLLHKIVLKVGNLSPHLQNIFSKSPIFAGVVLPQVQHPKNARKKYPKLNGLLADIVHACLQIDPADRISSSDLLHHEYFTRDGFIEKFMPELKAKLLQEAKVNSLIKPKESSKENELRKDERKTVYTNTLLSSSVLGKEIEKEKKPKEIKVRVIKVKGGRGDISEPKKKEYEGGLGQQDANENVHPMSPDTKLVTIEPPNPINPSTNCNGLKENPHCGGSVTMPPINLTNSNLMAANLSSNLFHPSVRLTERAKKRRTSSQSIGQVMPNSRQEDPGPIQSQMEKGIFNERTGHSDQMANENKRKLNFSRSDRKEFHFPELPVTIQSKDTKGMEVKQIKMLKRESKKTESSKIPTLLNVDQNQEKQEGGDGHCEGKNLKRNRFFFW
Description: as §1

T1 sequence (P54756 25-1037): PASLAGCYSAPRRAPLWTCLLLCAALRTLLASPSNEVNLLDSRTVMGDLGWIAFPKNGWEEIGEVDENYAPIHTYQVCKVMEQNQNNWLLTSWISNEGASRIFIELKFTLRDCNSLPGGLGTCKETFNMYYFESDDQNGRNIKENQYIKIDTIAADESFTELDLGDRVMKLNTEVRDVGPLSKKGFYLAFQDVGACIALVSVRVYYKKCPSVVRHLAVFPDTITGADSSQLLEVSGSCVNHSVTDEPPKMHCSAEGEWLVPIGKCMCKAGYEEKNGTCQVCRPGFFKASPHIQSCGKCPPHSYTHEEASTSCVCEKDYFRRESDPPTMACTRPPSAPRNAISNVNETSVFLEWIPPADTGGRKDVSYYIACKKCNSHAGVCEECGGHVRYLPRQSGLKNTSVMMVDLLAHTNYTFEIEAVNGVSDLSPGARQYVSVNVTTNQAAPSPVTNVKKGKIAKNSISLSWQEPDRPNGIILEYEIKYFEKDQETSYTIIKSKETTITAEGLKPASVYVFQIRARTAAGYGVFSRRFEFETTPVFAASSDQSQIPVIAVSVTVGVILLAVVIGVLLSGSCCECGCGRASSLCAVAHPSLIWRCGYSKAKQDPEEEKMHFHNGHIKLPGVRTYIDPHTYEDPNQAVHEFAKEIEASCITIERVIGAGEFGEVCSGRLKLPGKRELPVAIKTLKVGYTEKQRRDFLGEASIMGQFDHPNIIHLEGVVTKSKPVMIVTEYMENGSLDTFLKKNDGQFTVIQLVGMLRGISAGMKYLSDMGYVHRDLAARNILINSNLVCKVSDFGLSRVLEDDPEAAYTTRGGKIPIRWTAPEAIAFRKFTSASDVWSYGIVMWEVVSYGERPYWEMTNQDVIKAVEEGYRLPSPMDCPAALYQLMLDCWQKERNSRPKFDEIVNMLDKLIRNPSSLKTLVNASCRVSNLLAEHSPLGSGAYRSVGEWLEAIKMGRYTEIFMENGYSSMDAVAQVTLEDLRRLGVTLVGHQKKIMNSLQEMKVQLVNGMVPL

| Compound | KINOMEscan: EPHA5 (panel of 442 kinases [1]) | % Ctrl, SIK (panel of 442 kinases [2]) [% Ctrl] | % Ctrl, SBK1 (panel of 442 kinases [3]) [% Ctrl] | KINOMEscan: CDKL3 (panel of 442 kinases [4]) |
| --- | --- | --- | --- | --- |
| COc1cc(C(=O)N2CCC(N3CCN(C)CC3)CC2)ccc1Nc1ncc2c(n1)N(C)c1ccccc1C(=O)N2C [15 (LRRK2-IN-1)] | 95 | 77 | 100 | 83 |
| COc1cc(C(=O)N2CCC(N3CCN(C)CC3)CC2)ccc1Nc1ncc2c(n1)N1CCc3cccc(c31)C(=O)N2C [Compound 24] | 94 | 90 | 80 | 81 |
| COc1cc(C(=O)N2CCC(N3CCN(C)CC3)CC2)ccc1Nc1ncc2c(n1)N(C1CCCC1)c1ccccc1C(=O)N2C [Compound 25, 11-cyclopentyl-2-((2-methoxy-4-(4-(4-methylpiperazin-1-yl)piperidine-1-carbonyl)phenyl)amino)-5-methyl-5H-benzo[e]pyrimido[5,4-b][1,4]diazepin-6(11H)-one] | 99 | 98 | 72 | 73 |
| CCOc1cc(C(=O)N2CCC(N3CCN(C)CC3)CC2)ccc1Nc1ncc2c(n1)N(C1CCCC1)c1ccccc1C(=O)N2C [Compound 26] | 100 | 100 | 99 | 99 |

— paper PMC3914206
